Reference: patent US20240384268A1, “Oligonucleotides” (Hudson Institute of Medical Research, priority 2021, published 2024)
In the oligonucleotide strings, read from the 5' end, every base follows the letter of its sugar. An asterisk marks phosphorothioate; unmarked linkages are phosphodiester. Other units and linkages are bracketed, terminal groups are in braces. A string of capitals states the bases alone. d = 2'-deoxy (DNA); m = 2'-O-methyl

Target: T1, human TLR7 (Homo sapiens, UniProt Q9NYK1)
T1 construct: HA; host or cells: 293XL-hTLR7-HA (HEK293)
T1 sequence (Q9NYK1 27-1049): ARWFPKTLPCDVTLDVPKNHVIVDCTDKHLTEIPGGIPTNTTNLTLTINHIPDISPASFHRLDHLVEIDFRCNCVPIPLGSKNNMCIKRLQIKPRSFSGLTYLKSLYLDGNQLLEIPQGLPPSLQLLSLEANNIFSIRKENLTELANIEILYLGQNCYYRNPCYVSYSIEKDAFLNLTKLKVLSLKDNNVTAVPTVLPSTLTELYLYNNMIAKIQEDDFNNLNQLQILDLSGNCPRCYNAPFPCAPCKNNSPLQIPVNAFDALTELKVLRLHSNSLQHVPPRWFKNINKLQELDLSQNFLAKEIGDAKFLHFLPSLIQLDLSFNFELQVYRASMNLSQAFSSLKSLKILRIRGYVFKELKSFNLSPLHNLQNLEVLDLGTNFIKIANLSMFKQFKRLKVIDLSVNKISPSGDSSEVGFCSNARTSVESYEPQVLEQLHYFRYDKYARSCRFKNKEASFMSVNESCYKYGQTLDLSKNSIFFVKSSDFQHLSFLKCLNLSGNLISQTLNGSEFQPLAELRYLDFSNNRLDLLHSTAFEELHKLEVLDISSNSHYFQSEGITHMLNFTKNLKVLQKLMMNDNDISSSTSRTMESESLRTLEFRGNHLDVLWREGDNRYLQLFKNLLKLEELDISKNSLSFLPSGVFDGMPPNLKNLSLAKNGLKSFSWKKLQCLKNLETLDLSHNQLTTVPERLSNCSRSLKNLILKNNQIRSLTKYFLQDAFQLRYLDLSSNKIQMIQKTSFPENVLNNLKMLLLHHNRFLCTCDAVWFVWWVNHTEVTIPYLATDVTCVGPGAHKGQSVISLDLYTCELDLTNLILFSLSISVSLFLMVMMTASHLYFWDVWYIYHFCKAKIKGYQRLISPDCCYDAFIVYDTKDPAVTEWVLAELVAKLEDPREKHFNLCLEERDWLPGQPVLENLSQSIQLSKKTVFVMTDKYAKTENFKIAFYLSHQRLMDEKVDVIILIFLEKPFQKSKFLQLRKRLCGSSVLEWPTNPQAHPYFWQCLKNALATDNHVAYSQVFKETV
Assay: HEK-TLR7 NF-κB-luciferase reporter, R848 stimulation
Type: cell-based
Settings: for TLR7 100 nM (averaged NF-κB-Luciferase level relative to R848 condition): ASO 100 nM; for TLR7 100 nM (averaged NF-κB-Luciferase level relative to R848 condition) / TLR7 500 nM (averaged NF-κB-Luciferase level relative to R848 condition): relative to R848 only, given as fraction; for TLR7 500 nM (averaged NF-κB-Luciferase level relative to R848 condition): ASO 500 nM; for TLR7-100 nM: averaged NF-κB-Luciferase relative to R848: HEK-TLR7, 100 nM ASO, percentage of R848 without ASO (Alharbi et al., 2020)

Substance	TLR7 100 nM (averaged NF-κB-Luciferase level relative to R848 condition)	TLR7 500 nM (averaged NF-κB-Luciferase level relative to R848 condition)	TLR7-100 nM: averaged NF-κB-Luciferase relative to R848 [%]
GAGGTCTTGGCTTCGT (antisense; LNA-modified, pattern not given here) [MB21D1-525 LNA V1]	0.793	0.067	–
GATGGCCTCCCATCTC (antisense; LNA-modified, pattern not given here) [HPRT LNA-331 V1]	0.558	0.119	–
GCACACTTCGTACCCA (antisense; LNA-modified, pattern not given here) [CAMSAP1-4915 LNA V1]	0.657	0.221	–
GCACTTCAGTCTGAGC (antisense; LNA-modified, pattern not given here) [MB21D1-719 LNA KL]	0.713	0.168	–
GGAGGTCTTGGCTTCG (antisense; LNA-modified, pattern not given here) [MB21D1-526 LNA V1]	0.503	0.119	–
GGCACTTTGCCTCCTT (antisense; LNA-modified, pattern not given here) [EGFR-2859 LNA V1]	0.774	0.668	–
GGCTCGGCTTGCCTAC (antisense; LNA-modified, pattern not given here) [CAMSAP1-5594 LNA V1]	0.569	0.186	–
GGTCATTACAATAGCT (antisense; LNA-modified, pattern not given here) [HPRT LNA-475 KL]	0.580	0.049	–
GGTCTTGGCTTCGTGG (antisense; LNA-modified, pattern not given here) [MB21D1-523 LNA V1]	0.481	0.042	–
GTCAAGGGCATATCCT (antisense; LNA-modified, pattern not given here) [HPRT LNA-732 KL]	0.650	0.142	–
GTCCTTGCACGTGGCT (antisense; LNA-modified, pattern not given here) [EGFR-1015 LNA V1]	0.471	0.251	–
GTCTCTGGAGCTTCCT (antisense; LNA-modified, pattern not given here) [CAMSAP1-2456 LNA V1]	0.477	0.084	–
GTCTTCATCGGCCCTG (antisense; LNA-modified, pattern not given here) [CAMSAP1-2113 LNA V1]	0.641	0.119	–
GTGATCTTGACATGCT (antisense; LNA-modified, pattern not given here) [EGFR-2790 LNA KL]	0.438	0.060	–
GTGATGGCCTCCCATC (antisense; LNA-modified, pattern not given here) [HPRT LNA-333 V1]	0.665	0.139	–
TACTTTCCGAGGTGTC (antisense; LNA-modified, pattern not given here) [CAMSAP1-1739 LNA KL]	0.738	0.451	–
TCCACAATCAAGACAT (antisense; LNA-modified, pattern not given here) [HPRT LNA-551 KL]	0.863	0.533	–

Substance	TLR7 100 nM (averaged NF-κB-Luciferase level relative to R848 condition)	TLR7 500 nM (averaged NF-κB-Luciferase level relative to R848 condition)	TLR7-100 nM: averaged NF-κB-Luciferase relative to R848 [%]
TCCATACCCAAGGCAT (antisense; LNA-modified, pattern not given here) [CTNN2B-2446 LNA V1]	1.056	0.494	–
TCCGCCCAAAGGGAAC (antisense; LNA-modified, pattern not given here) [HPRT LNA-1027 KL]	0.860	0.543	–
TCCTTGCACGTGGCTT (antisense; LNA-modified, pattern not given here) [EGFR-1014 LNA V1]	0.812	0.482	–
TCGTGGGGTCCTTTTC (antisense; LNA-modified, pattern not given here) [HPRT LNA-660 V1]	0.540	0.318	–
TCTTCATCGGCCCTGC (antisense; LNA-modified, pattern not given here) [CAMSAP1-2112 LNA V1]	0.820	0.511	–
TCTTGGCTTCGTGGAG (antisense; LNA-modified, pattern not given here) [MB21D1-521 LNA V1]	1.033	0.288	–
TGACAAAGATTCACTG (antisense; LNA-modified, pattern not given here) [HPRT LNA-1353 KL]	1.040	0.430	–
TGACTGTCTTGAGGGT (antisense; LNA-modified, pattern not given here) [MB21D1-1483 LNA KL]	0.802	0.150	–
TGCTCCTCGGTCTCCC (antisense; LNA-modified, pattern not given here) [CAMSAP1-1850 LNA V1]	0.751	0.595	–
TGGTCCACAACCCCTT (antisense; LNA-modified, pattern not given here) [MB21D1-697 LNA V1]	1.008	0.545	–
TGGTGGCCACCCATCT (antisense; LNA-modified, pattern not given here) [CTNN2B-2479 LNA V1]	0.957	0.393	–
TGTCCTTGCACGTGGC (antisense; LNA-modified, pattern not given here) [EGFR-1016 LNA V1]	0.502	0.199	–
TGTCTGGAAGCTTCCT (antisense; LNA-modified, pattern not given here) [CTNN2B-808 LNA V1]	0.495	0.278	–
TTCAGGCGCTGCCTTG (antisense; LNA-modified, pattern not given here) [CAMSAP1-2709 LNA V1]	0.642	0.181	–
mA*mA*mA*mG*mC*A*G*T*C*T*C*C*A*T*G*mU*mC*mC*mC*mA (mA*mA*mA*mG*mC*dA*dG*dT*dC*dT*dC*dC*dA*dT*dG*mU*mC*mC*mC*mA; antisense) [[CDKN2B-AS1]2237]	–	–	27.16
mA*mA*mG*mC*mA*G*T*C*T*C*C*A*T*G*T*mC*mC*mC*mA*mG (mA*mA*mG*mC*mA*dG*dT*dC*dT*dC*dC*dA*dT*dG*dT*mC*mC*mC*mA*mG; antisense) [[CDKN2B-AS1]2236]	–	–	35.69
mA*mG*mC*mA*mG*T*C*T*C*C*A*T*G*T*C*mC*mC*mA*mG*mG (AGCAGTCTCCATGTCCCAGG; antisense; sugars from the 5' end m5 d10 m5, all phosphorothioate, methylation of C not given here) [[CDKN2B-AS1]2235]	–	–	25.50
